Publication PMC6630832, “3-Vinylazetidin-2-Ones: Synthesis, Antiproliferative and Tubulin Destabilizing Activity in MCF-7 and MDA-MB-231 Breast Cancer Cells” (Pharmaceuticals, 2019)

Experiments:
[1] = system: human MCF-7 breast cancer cells; experiment: Cell viability (Alamar Blue) antiproliferative assay in MCF-7 cells; type: cell-based; settings: Homo sapiens, MCF7, 72 h, human MCF-7 breast cancer cells; 72 h; mean ± SEM; read-out: Antiproliferative Activity IC50
Experimental: The human breast carcinoma cell line MCF-7, was purchased from the European Collection of Animal Cell Cultures (ECACC) and was cultured in Eagle’s minimum essential medium with 10% fetal bovine serum, 2 mM L-glutamine and 100 μg/mL penicillin/streptomycin. The medium was supplemented with 1% non-essential amino acids. The human breast carcinoma cell line MDA-MB-231 was purchased from the European Collection of Animal Cell Cultures (ECACC). MDA-MB-231 cells were maintained in Dulbecco’s modified Eagle’s medium (DMEM) supplemeted with 10% (v/v) fetal bovine serum, 2 mM L-glutamine and 100 μg/mL penicillin/streptomycin (complete medium). All media contained 100 U/mL penicillin and 100 μg/mL streptomycin. Triple negative breast cancer Hs578T cells and its invasive variant Hs578Ts(i)8 were obtained as a kind gift from Dr. Susan McDonnell, School of Chemical and Bioprocess Engineering, University College Dublin and were cultured in Dulbecco’s Modified Eagle’s Media (DMEM) with GlutaMAX^TM-I, with the same supplement as for MDA-MB-231 cells in the absence of non-essential amino acids. HEK-293T normal epithelial embryonic kidney cells were cultured in Dulbecco’s Modified Eagle’s Medium (DMEM) with GlutaMAX^TM-I in the absence of non-essential amino acids. K562 and HL-60 cells were originally obtained from the European Collection of Cell Cultures (Salisbury, UK).The K562 cells were derived from a patient in the blast crisis stage of CML HL-60 cells were derive from a patient with acute myeloid leukaemia. Cells were cultured in RPMI-1640 Glutamax medium supplemented with 10% FCS media, and 100 μg/mL penicillin/streptomycin. Cells were maintained at 37 °C in 5% CO2 in a humidified incubator. All cells were sub-cultured three times/week (adherent cells by trypsinisation).
Cells were seeded at a density of 5 × 10^3 cells/well (MCF-7), in triplicate in 96-well plates. After 24 h, cells were then treated with either medium alone, vehicle [1% ethanol (v/v)] or with serial dilutions of CA-4 or β-lactam analogue. Cell viability for MCF-7 and MDA-MB-231 was analysed using the Alamar Blue assay (Invitrogen Corp, Thermo Fisher Scientific, 168 Third Avenue, Waltham, MA, USA) according to the manufacturer’s instructions. After 72 h, Alamar Blue [10% (v/v)] was added to each well and plates were incubated for 3–5 h at 37 °C in the dark. Fluorescence was read using a 96-well fluorimeter with excitation at 530 nm and emission at 590 nm. Results were expressed as percentage viability relative to vehicle control (100%). Dose response curves were plotted and IC50 values (concentration of drug resulting in 50% reduction in cell survival) were obtained using the commercial software package Prism (GraphPad Software, Inc., 2365 Northside, Suite 560, San Diego, CA, USA). Experiments were performed in triplicate on at least three separate occasions.

| Compound | melting point [°C] | IC50 [1] [µM] |
| --- | --- | --- |
| C=CC1C(=O)N(c2cc(OC)c(OC)c(OC)c2)C1c1ccc(F)cc1 (stereo not shown) [Compound 7a, 4-(4-Fluorophenyl)-1-(3,4,5-trimethoxyphenyl)-3-vinylazetidin-2-one] | 147 to 149 | 8.31 ± 1.4 |
| C=CC1C(=O)N(c2cc(OC)c(OC)c(OC)c2)C1c1ccc(Br)cc1 (stereo not shown) [Compound 7c, 4-(4-Bromophenyl)-1-(3,4,5-trimethoxyphenyl)-3-vinylazetidin-2-one] |  | 0.445 ± 0.07 |
| C=CC1C(=O)N(c2cc(OC)c(OC)c(OC)c2)C1c1ccc(N(C)C)cc1 (stereo not shown) [Compound 7e, 4-(4-Dimethylaminophenyl)-1-(3,4,5-trimethoxyphenyl)-3-vinylazetidin-2-one] |  | 4.05 ± 0.45 |
| C=CC1C(=O)N(c2cc(OC)c(OC)c(OC)c2)C1c1ccccc1 (stereo not shown) [Compound 7f, 4-Phenyl-1-(3,4,5-trimethoxyphenyl)-3-vinylazetidin-2-one] | 109 to 111 | 4.03 ± 0.42 |
| C=CC1C(=O)N(c2cc(OC)c(OC)c(OC)c2)C1c1ccc(C)cc1 (stereo not shown) [Compound 7g, 4-p-Tolyl-1-(3,4,5-trimethoxyphenyl)-3-vinylazetidin-2-one] | 106 to 107 | 0.355 ± 0.03 |
| C=CC1C(=O)N(c2cc(OC)c(OC)c(OC)c2)C1c1ccc(OCCCC)cc1 (stereo not shown) [Compound 7j, 4-(4-Butoxyphenyl)-1-(3,4,5-trimethoxyphenyl)-3-vinylazetidin-2-one] | 100 to 102 | 14 ± 1.81 |
| C=CC1C(=O)N(c2cc(OC)c(OC)c(OC)c2)C1c1ccc(Oc2ccccc2)cc1 (stereo not shown) [Compound 7k, 4-(4-Phenoxyphenyl)-1-(3,4,5-trimethoxyphenyl)-3-vinylazetidin-2-one] | 128 to 130 | 57 ± 3.72 |
| C=CC1C(=O)N(c2cc(OC)c(OC)c(OC)c2)C1c1ccc(OCc2ccccc2)cc1 (stereo not shown) [Compound 7l, 4-(4-Benzyloxyphenyl)-1-(3,4,5-trimethoxyphenyl)-3-vinylazetidin-2-one] | 148 to 149 | 8.02 ± 0.63 |
| C=CC1C(=O)N(c2cc(OC)c(OC)c(OC)c2)C1c1cccc2ccccc12 (stereo not shown) [Compound 7m, 4-Naphthalen-1-yl-1-(3,4,5-trimethoxyphenyl)-3-vinylazetidin-2-one] | 121 to 122 | 1.74 ± 0.17 |
| C=CC1C(=O)N(c2cc(OC)c(OC)c(OC)c2)C1c1ccc(OC)c([N+](=O)[O-])c1 (stereo not shown) [Compound 7p, 4-(4-Methoxy-3-nitrophenyl)-1-(3,4,5-trimethoxyphenyl)-3-vinylazetidin-2-one] |  | 0.618 ± 0.1 |
| C=CC1C(=O)N(c2ccc(Cl)cc2)C1c1cc(OC)c(OC)c(OC)c1 (stereo not shown) [Compound 8b, 4-(3,4,5-Trimethoxyphenyl)-1-(4-chlorophenyl)-3-vinylazetidin-2-one] | 131 to 133 | 29.2 ± 1.14 |
| COc1ccc(C2CC(=O)N2c2cc(OC)c(OC)c(OC)c2)cc1O (stereo not shown) [Compound 9c, 4-(3-Hydroxy-4-methoxyphenyl)-1-(3,4,5-trimethoxyphenyl)-azetidin-2-one] | 78 to 80 | 0.017 |
| COc1ccc(C2C(C(C)O)C(=O)N2c2cc(OC)c(OC)c(OC)c2)cc1O (stereo not shown) [Compound 10a, 3-(1-Hydroxyethyl)-4-(3-hydroxy-4-methoxyphenyl)-1-(3,4,5-trimethoxyphenyl) azetidin-2-one] |  | 0.065 ± 0.015 |
| C/C=C/C(O)C1C(=O)N(c2cc(OC)c(OC)c(OC)c2)C1c1ccc(OC)cc1 (stereo not shown) [Compound 10b, 3-((E)-1-Hydroxybut-2-enyl)-1-(3,4,5-trimethoxyphenyl)-4-(4-methoxyphenyl) azetidin-2-one] | 143 to 144 | 0.292 ± 0.05 |
| COc1ccc(C2C(C(C)=O)C(=O)N2c2cc(OC)c(OC)c(OC)c2)cc1O (stereo not shown) [Compound 11, 3-Acetyl-4-(3-hydroxy-4-methoxyphenyl)-1-(3,4,5-trimethoxyphenyl)azetidin-2-one] |  | 0.414 ± 0.132 |
| COc1ccc(C2C(C(O)CO)C(=O)N2c2cc(OC)c(OC)c(OC)c2)cc1O (stereo not shown) [Compound 13, 3-(1,2-Dihydroxyethyl)-4-(3-hydroxy-4-methoxyphenyl)-1-(3,4,5-trimethoxyphenyl) azetidin-2-one] |  | 0.069 ± 0.029 |
| C=CC1C(=O)N(c2cc(OC)c(OC)c(OC)c2)C1c1ccc(OC)c(NC(=O)C(C)N)c1 (stereo not shown) [Compound 15, 2-Amino-N-(2-methoxy-5-(1-(3,4,5-trimethoxyphenyl)-4-oxo-3-vinylazetidin-2-yl)phenyl)propanamide] |  | 3.25 ± 0.27 |

More lines, now with the values ahead:

| melting point [°C] | IC50 [1] [µM] | Compound |
| --- | --- | --- |
|  | 1.07 ± 0.14 | C=CC1C(=O)N(c2ccc(F)cc2)C1c1cc(OC)c(OC)c(OC)c1 (stereo not shown) [Compound 8a, 4-(3,4,5-Trimethoxyphenyl)-1-(4-fluorophenyl)-3-vinylazetidin-2-one] |
| 120 to 122 | 10.4 ± 0.87 | C=CC1C(=O)N(c2ccc(Br)cc2)C1c1cc(OC)c(OC)c(OC)c1 (stereo not shown) [Compound 8c, 4-(3,4,5-Trimethoxyphenyl)-1-(4-bromophenyl)-3-vinylazetidin-2-one] |
|  | 59.1 ± 4.16 | C=CC1C(=O)N(c2ccc([N+](=O)[O-])cc2)C1c1cc(OC)c(OC)c(OC)c1 (stereo not shown) [Compound 8d, 4-(3,4,5-Trimethoxyphenyl)-1-(4-nitrophenyl)-3-vinylazetidin-2-one] |
| 172 to 174 | 68.8 ± 3.63 | C=CC1C(=O)N(c2ccc(C(C)(C)C)cc2)C1c1cc(OC)c(OC)c(OC)c1 (stereo not shown) [Compound 8e, 4-(3,4,5-Trimethoxyphenyl)-1-(4-tert-butylphenyl)-3-vinylazetidin-2-one] |
| 150 to 151 | 50.5 ± 4.25 | C=CC1C(=O)N(c2ccccc2)C1c1cc(OC)c(OC)c(OC)c1 (stereo not shown) [Compound 8f, 4-(3,4,5-Trimethoxyphenyl)-1-phenyl-3-vinylazetidin-2-one] |
|  | 43.1 ± 2.16 | C=CC1C(=O)N(c2ccc(C)cc2)C1c1cc(OC)c(OC)c(OC)c1 (stereo not shown) [Compound 8g, 4-(3,4,5-Trimethoxyphenyl)-1-p-tolyl-3-vinylazetidin-2-one] |
| 110 to 112 | 36.4 ± 2.13 | C=CC1C(=O)N(c2ccc(CC)cc2)C1c1cc(OC)c(OC)c(OC)c1 (stereo not shown) [Compound 8h, 4-(3,4,5-Trimethoxyphenyl)-1-(4-ethylphenyl)-3-vinylazetidin-2-one] |
|  | 65.1 ± 5.55 | C=CC1C(=O)N(c2ccc(OC)cc2)C1c1cc(OC)c(OC)c(OC)c1 (stereo not shown) [Compound 8i, 4-(3,4,5-Trimethoxyphenyl)-1-(4-methoxyphenyl)-3-vinylazetidin-2-one] |
| 223 to 224 | 4.02 ± 0.64 | C=CC1C(=O)N(c2ccc(NC(C)=O)cc2)C1c1cc(OC)c(OC)c(OC)c1 (stereo not shown) [Compound 8j, N-(4-(2-(3,4,5-Trimethoxyphenyl)-4-oxo-3-vinylazetidin-1-yl)phenyl)acetamide] |
| 104 to 106 | > 50 | C=CC1C(=O)N(c2ccc(SC)cc2)C1c1cc(OC)c(OC)c(OC)c1 (stereo not shown) [Compound 8k, 1-(4-(Methylthio)phenyl)-4-(3,4,5-trimethoxyphenyl)-3-vinylazetidin-2-one] |
|  | 0.537 ± 0.08 | COc1ccc(C2C(C(O)/C=C/c3ccccc3)C(=O)N2c2cc(OC)c(OC)c(OC)c2)cc1 (stereo not shown) [Compound 10e, 3-((E)-1-Hydroxy-3-phenylallyl)-1-(3,4,5-trimethoxyphenyl)-4-(4-methoxyphenyl) azetidin-2-one] |
|  | 0.288 ± 0.076 | C=CC(O)C1C(=O)N(c2cc(OC)c(OC)c(OC)c2)C1c1ccc(OC)c(O)c1 (stereo not shown) [Compound 10g, 4-(3-Hydroxy-4-methoxyphenyl)-3-(1-hydroxyallyl)-1-(3,4,5-trimethoxyphenyl) azetidin-2-one] |
|  | 0.467 ± 0.000253 | C=CC(C)(O)C1C(=O)N(c2cc(OC)c(OC)c(OC)c2)C1c1ccc(OC)c(O)c1 (stereo not shown) [Compound 10h, 4-(3-Hydroxy-4-methoxy-phenyl)-3-(1-hydroxy-1-methylallyl)-1-(3,4,5-trimethoxy-phenyl)-azetidin-2-one] |
